{"source": "the supplement of paper PMC10307832", "assay_in_all_cases": "relative viability (nuclei count vs DMSO), 5 days (fraction); higher = more cells survive", "key": {"VE-821": {"compound": "CS(=O)(=O)c1ccc(-c2cnc(N)c(C(=O)Nc3ccccc3)n2)cc1 [VE-821]", "procedure,_shortened": "(§1)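 In 1536-well plates, lung cancer cell lines rested overnight at 37 °C before five library-drug doses (not always all listed), √10 apart, were pinned onto vehicle-anchored plates. Nuclei were counted with MetaXpress from 4× Hoechst images taken after 5 days without medium change. Viability compares treated-well with vehicle-well nuclei as a median over plates, and plates needed control CV below 25% plus at least one doubling to pass.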"}, "Vismodegib": {"compound": "CS(=O)(=O)c1ccc(C(=O)Nc2ccc(Cl)c(-c3ccccn3)c2)c(Cl)c1 [Vismodegib]", "procedure,_shortened": "as §1"}, "Ruxolitinib": {"compound": "N#CC[C@H](C1CCCC1)n1cc(-c2ncnc3[nH]ccc23)cn1 [Ruxolitinib]", "procedure,_shortened": "as §1"}, "VE-821 + Trametinib": {"compound": "CS(=O)(=O)c1ccc(-c2cnc(N)c(C(=O)Nc3ccccc3)n2)cc1 [VE-821] + CC(=O)Nc1cccc(-n2c(=O)n(C3CC3)c(=O)c3c(Nc4ccc(I)cc4F)n(C)c(=O)c(C)c32)c1 [Trametinib] (partner 0.02 µM)", "procedure,_shortened": "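Values are medians from duplicate plates. Each reflects relative viability, defined as the nuclei count of treated wells over that of vehicle wells. Lung cancer cell lines in 1536-well plates were pin-tool dosed one day after seeding with one drug alone or with a fixed anchor-drug dose plus five library-drug doses (not always all listed) in √10 steps, then fixed, stained and imaged at 4× after 5 days.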"}}}
{"cell line": "UMC-11", "values": [{"measurement": "relative viability", "setting": "VE-821; 0.08 µM", "value": 1.08}, {"measurement": "relative viability", "setting": "VE-821; 0.253 µM", "value": 0.915}, {"measurement": "relative viability", "setting": "VE-821; 0.8 µM", "value": 0.948}, {"measurement": "relative viability", "setting": "VE-821; 2.53 µM", "value": 1.04}, {"measurement": "relative viability", "setting": "VE-821; 8 µM", "value": 0.531}, {"measurement": "relative viability", "setting": "Vismodegib; 0.08 µM", "value": 0.897}, {"measurement": "relative viability", "setting": "Vismodegib; 0.253 µM", "value": 0.919}, {"measurement": "relative viability", "setting": "Vismodegib; 0.8 µM", "value": 1}, {"measurement": "relative viability", "setting": "Vismodegib; 2.53 µM", "value": 0.947}, {"measurement": "relative viability", "setting": "Vismodegib; 8 µM", "value": 0.834}, {"measurement": "relative viability", "setting": "Ruxolitinib; 0.08 µM", "value": 0.954}, {"measurement": "relative viability", "setting": "Ruxolitinib; 0.253 µM", "value": 0.999}, {"measurement": "relative viability", "setting": "Ruxolitinib; 0.8 µM", "value": 1.1}, {"measurement": "relative viability", "setting": "Ruxolitinib; 2.53 µM", "value": 1.13}, {"measurement": "relative viability", "setting": "Ruxolitinib; 8 µM", "value": 1.04}, {"measurement": "relative viability", "setting": "VE-821 + Trametinib; first compound 0.08 µM", "value": 0.738}, {"measurement": "relative viability", "setting": "VE-821 + Trametinib; first compound 0.253 µM", "value": 0.596}, {"measurement": "relative viability", "setting": "VE-821 + Trametinib; first compound 0.8 µM", "value": 0.516}, {"measurement": "relative viability", "setting": "VE-821 + Trametinib; first compound 2.53 µM", "value": 0.798}, {"measurement": "relative viability", "setting": "VE-821 + Trametinib; first compound 8 µM", "value": 0.38}]}
